One series addresses Erk2 (Homo sapiens, UniProt P28482). As to the kind of experiment: Erk2 alpha kinase assay (cell-free, ALPHA technology). In kind it is biochemical. The settings on record: 10 μM ATP. As for the experimental part:
The inhibitory effect of the compounds according to the invention was tested on various serine/threonine, tyrosine and lipid kinases in enzymatic assays. Recombinant human kinases such as, for example, Erk2, were used in this case, partly as full-length kinases, partly as shortened fragments, but at least consisting of the functional kinase domains. The commercial kinase proteins (Proqinase, Upstate) were used as recombinant fusion proteins with GST (glutathion-S-transferase) or His-Tag. Depending on the type of substrate, the various kinase reactions were quantified by means of suitable ALPHA™ beads (Perkin-Elmer). The substance testing is described in detail hereinafter for the Erk assay. […] a) MAPK-ALPHAs (e.g. […] The fluorescence was detected the following morning in a Envision plate reader (Perkin-Elmer). The %-inhibition values per substance concentration were calculated by means of the following formula from the raw data determined in the Envision plate reader[…]: Eight determinations were made for each control and two for the substance samples. […] The IC50 values were determined using GraphPadPrism.

A further series relates to Hct116. Nature of the series: XTT assay for anti-proliferative effect. The settings on record: Homo sapiens, HCT-116; Hct116 tumour cell line, ~48 h incubation. In kind it is cell-based. Here is the method: The principle of this test is based on the intracellular reduction of the tetrazolium dye XTT (sodium 3′-[1-(phenylaminocarbonyl)-3,4-tetrazolium]-bis(4-methoxy-6-nitro)benzene sulfonic acid, Sigma) to a formazan dye by mitochondrial dehydrogenases. The dye is only formed by metabolically active cells and its photometrically measurable intensity is a quantitative indicator for the presence of living cells. The reduction of dye formation by incubation of the cells with substances serves as a parameter for the anti-proliferative effect.
The tumour cell lines (ATCC) were injected into 96-well microtitre plates in a defined cell number (1250 cells/well for Hct116) and then incubated overnight in an incubator at 37° C., 5% CO2 and 95% air humidity. The test substances were prepared as stock solutions (10 mM) in DMSO. To determine the EC50 values the potential inhibitor substances were added to the cells in half-logarithmically graded dilutions, resulting in final concentrations of 1.58 nM-50 μM. The cell plates were then incubated for ˜48 h in an incubator at 37° C., 5% CO2 and 95% air humidity.
For the detection reaction the substrate XTT was mixed with PMS (N-Methyl dibenzopyrazine methylsulfate, Sigma) and added to the cells so that a final concentration of 325 μg XTT/ml and 2.5 μg PMS/ml was obtained. It was then incubated for 3 h at 37° C., 95% air humidity. The formazan salt formed by the cellular dehydrogenases could then be quantified by adsorption at 490 nm.
The % inhibition value was evaluated by means of the following formula from the values for the optical densities measured in each case at 490 nm:
Eight determinations were made for each control and two for the substance samples. The 0% control contains no cells, the 100% control (proliferation control) contains no test substance. The EC50 values were determined using GraphPadPrism.

Erk2, sequence (P28482 2-360 limits assumed): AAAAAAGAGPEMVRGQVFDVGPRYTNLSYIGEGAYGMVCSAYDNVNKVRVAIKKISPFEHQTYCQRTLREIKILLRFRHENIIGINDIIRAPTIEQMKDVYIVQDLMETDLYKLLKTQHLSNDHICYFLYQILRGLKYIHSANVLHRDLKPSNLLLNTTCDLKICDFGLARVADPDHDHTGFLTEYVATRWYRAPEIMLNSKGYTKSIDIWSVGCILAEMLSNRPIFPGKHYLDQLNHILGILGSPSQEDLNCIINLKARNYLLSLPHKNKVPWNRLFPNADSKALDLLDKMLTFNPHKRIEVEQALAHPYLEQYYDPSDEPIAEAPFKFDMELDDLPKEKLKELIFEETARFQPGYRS

In the case of `Cn1cc(-c2cnc3ccc(NC(=O)NCCCCc4ccccc4)nc3n2)cn1` [Compound 155, 1-[3-(1-Methyl-1H-pyrazol-4-yl)-pyrido[2,3-b]pyrazin-6-yl]-3-(4-phenyl-butyl)-urea], the melting point – broadly, the temperature of the solid-liquid transition – lay within 198 to 201 °C. Further, at Erk2, the IC50 (as a rule, the concentration needed to halve the response being measured) was determined as 4 nM. In the series on Hct116, the midpoint of the response, the EC50, lay at 337 nM.

Molecule `O=C(NCCCCc1ccccc1)Nc1ccc2ncc(-c3cn[nH]c3)nc2n1` [Compound 159, 1-(4-Phenyl-butyl)-3-[3-(1H-pyrazol-4-yl)-pyrido[2,3-b]pyrazin-6-yl]-urea] gave a melting point of 231 to 232 °C. This molecule had an IC50 against Erk2 of 1 nM. Also, it took 844 nM to reach a half-maximal effect in the series with Hct116 (EC50).

In turn, `O=C(NCCCCc1ccccc1)Nc1ccc2ncc(-c3ccc(O)cc3)nc2n1` [Compound 160, 1-[3-(4-Hydroxy-phenyl)-pyrido[2,3-b]pyrazin-6-yl]-3-(4-phenyl-butyl)-urea] gave a melting point of 233 to 235 °C. This molecule gave a 50% inhibitory concentration (IC50) against Erk2 of 1 nM. Moreover, the 50% effective concentration (EC50) (as a rule, the concentration giving half of the maximal effect) in the series on Hct116 worked out at 420 nM.

For `CC(CCCc1ccccc1)NC(=O)Nc1ccc2ncc(-c3cnn(C)c3)nc2n1` (stereo not drawn) [Compound 164, 1-(1-Methyl-4-phenyl-butyl)-3-[3-(1-methyl-1H-pyrazol-4-yl)-pyrido[2,3-b]pyrazin-6-yl]-urea], the melting point was in the range of 204 to 208 °C. Further, the half-maximal inhibitory concentration (IC50) against Erk2 was found to be 2 nM. The molecule further showed a concentration giving a half-maximal response (EC50) in the series with Hct116 of 557 nM.

Molecule `O=C(NCCCCc1ccccc1)Nc1ccc2ncc(-c3ccc(OP(=O)(O)O)cc3)nc2n1` [Compound 165, Phosphoric acid mono-(4-{6-[3-(4-phenyl-butyl)-ureido]-pyrido[2,3-b]pyrazin-3-yl}-phenyl) ester] returned a melting point of 202 °C. The same molecule came in with a half-inhibitory concentration (IC50) on Erk2 of 3 nM. The response with Hct116 was half-maximal at 3190 nM (EC50).

On Erk2, `C[C@H](CCCc1ccccc1)NC(=O)Nc1ccc2ncc(-c3cnn(CCN4CCOCC4)c3)nc2n1` [Compound 168, 1-((R)-1-Methyl-4-phenyl-butyl)-3-{3-[1-(2-morpholin-4-yl-ethyl)-1H-pyrazol-4-yl]-pyrido[2,3-b]pyrazin-6-yl}-urea] returned a half-maximal inhibitory concentration (IC50) of 3 nM. The EC50 in the series on Hct116 was 903 nM.

Molecule `Cn1cc(-c2cnc3ccc(NC(=O)NCCCC(C)(C)c4ccccc4)nc3n2)cn1` [Compound 169, 1-(4-Methyl-4-phenyl-pentyl)-3-[3-(1-methyl-1H-pyrazol-4-yl)-pyrido[2,3-b]pyrazin-6-yl]-urea] gave a melting point of 208 to 210 °C. On Erk2, this molecule came in with a 50% inhibitory concentration (IC50) of 3 nM. Besides, the EC50 with Hct116 worked out at 563 nM.

Turning to `CCCn1cc(-c2cnc3ccc(NC(=O)N[C@H](C)CCCc4ccccc4)nc3n2)cn1` [Compound 170, 1-((R)-1-Methyl-4-phenyl-butyl)-3-[3-(1-propyl-1H-pyrazol-4-yl)-pyrido[2,3-b]pyrazin-6-yl]-urea], the melting point fell in the range of 185 to 188 °C. Also, the half-inhibitory concentration (IC50) on Erk2 is 4 nM. Besides, the EC50 in the series with Hct116 came to 149 nM.

`C[C@H](CCCc1ccccc1)NC(=O)Nc1ccc2ncc(N3CCCC3)nc2n1` [Compound 173, 1-((R)-1-Methyl-4-phenyl-butyl)-3-(3-pyrrolidin-1-yl-pyrido[2,3-b]pyrazin-6-yl)-urea]: the melting point was 187 to 190 °C. The molecule also had an IC50 against Erk2 of 5 nM.

Consider `O=C(NCCCCc1ccccc1)Nc1ccc2ncc(N3CCOCC3)nc2n1` [Compound 176, 1-(3-Morpholin-4-yl-pyrido[2,3-b]pyrazin-6-yl)-3-(4-phenyl-butyl)-urea], for which the melting point was in the range of 200 to 202 °C. The molecule also returned an IC50 at Erk2 of 6 nM.

Regarding `Cc1n[nH]c(C)c1-c1cnc2ccc(NC(=O)N[C@H](C)CCCc3ccccc3)nc2n1` [Compound 177, 1-[3-(3,5-Dimethyl-1H-pyrazol-4-yl)-pyrido[2,3-b]pyrazin-6-yl]-3-((R)-1-methyl-4-phenyl-butyl)-urea], the melting point lay in the range of 266 to 269 °C. Further, at Erk2, the IC50 was 6 nM.

The molecule `COc1ccc(-c2cnc3ccc(NC(=O)NCCCCc4ccccc4)nc3n2)cc1OC` [Compound 178, 1-[3-(3,4-Dimethoxy-phenyl)-pyrido[2,3-b]pyrazin-6-yl]-3-(4-phenyl-butyl)-urea] had a melting point of 210 to 211 °C. The IC50 against Erk2 came to 6 nM.

Regarding `COc1ccccc1-c1cnc2ccc(NC(=O)N[C@H](C)CCCc3ccccc3)nc2n1` [Compound 179, 1-[3-(2-Methoxy-phenyl)-pyrido[2,3-b]pyrazin-6-yl]-3-((R)-1-methyl-4-phenyl-butyl)-urea], the melting point lay within 137 to 138 °C. Also, half-maximal inhibition on Erk2 (IC50) required 6 nM.

On to `C[C@H](CCCc1ccccc1)NC(=O)Nc1ccc2ncc(-c3cccc(C(=O)O)c3)nc2n1` [Compound 196, 3-{6-[3-((R)-1-Methyl-4-phenyl-butyl)-ureido]-pyrido[2,3-b]pyrazin-3-yl}-benzoic acid], for which the melting point is 261 °C (dec.). Besides, the IC50 against Erk2 was 4 nM.

`N[C@@H](Cc1ccc(-c2cnc3ccc(NC(=O)NCCCCc4ccccc4)nc3n2)cc1)C(=O)O` [Compound 197, (S)-2-Amino-3-(4-{6-[3-(4-phenyl-butyl)-ureido]-pyrido[2,3-b]pyrazin-3-yl}-phenyl)-propionic acid]: the melting point was in the range of 230 to 232 °C. At Erk2, this molecule showed an IC50 of 5 nM.

Molecule `O=C(NCCCCc1ccccc1)Nc1ccc2ncc(-c3cccc(C(=O)O)c3)nc2n1` [Compound 198, 3-{6-[3-(4-Phenyl-butyl)-ureido]-pyrido[2,3-b]pyrazin-3-yl}-benzoic acid] registered a melting point of 254 to 256 °C. Moreover, the half-inhibitory concentration (IC50) on Erk2 came to 3 nM.

`O=C(NCCCCc1ccccc1)Nc1ccc2ncc(-c3ccc(OCCOCCO)cc3)nc2n1` [Compound 201, 1-(3-{4-[2-(2-Hydroxy-ethoxy)-ethoxy]-phenyl}-pyrido[2,3-b]pyrazin-6-yl)-3-(4-phenyl-butyl)-urea] displayed a melting point of 192 to 194 °C. Besides, the half-inhibitory concentration (IC50) against Erk2 is 39 nM. A half-maximal effect with Hct116 (EC50) was put at 888 nM.

Source of the values: US8791118B2, “Pyridopyrazines as highly selective ras-Raf-Mek-Erk signal transduction pathway inhibitors” (Aeterna Zentaris GmbH, priority 2011, dated 2014).
